Like-named read-outs stand apart in the source and are kept apart here. Values belong to the molecule of their own block, whether it stands above or below them.
Experiments:
[1] = system: cardiomyocytes derived from hiPSCs from a LQTS3 patient
[2] = system: cardiomyocytes derived from hiPSCs from a LQTS3 patient; assay: cells; conditions: Homo sapiens, Cardiomyocyte
[3] = system: normal human induced pluripotent stem cell (hiPSC) cardiomyocyte; conditions: for WT-Fold Prolongation: APD; for WT-Fold Prolongation / Cessation of Beating / WT-Prolongation Dose: normal hiPSC cardiomyocytes; for WT-Cessation Dose (μM): cessation of beating
[4] = target: hERG potassium channel (IKr) (Homo sapiens, UniProt Q12809); assay: Automated patch clamp, hERG (IKr) expressed in CHO cells; conditions: for IC50: hERG (IKr) IC50, CHO cells
[5] = target: Nav1.5 sodium channel transfected into HEK293 cells (Homo sapiens, UniProt Q14524); assay: Patch clamp electrophysiology, peak (INaP) and late (INaL) sodium current in transfected cells
Protocol: (§1) This provided data to investigate the physiology and action of target compounds on individual ion channels. The assay used standardized protocols for culturing and conducting conventional whole cell recording that have been previously developed for both current and voltage-clamp to characterize action potentials using transfected cells. Briefly, the Nav1.5 sodium channel was transfected into HEK293 cells. […] Briefly, cells were plated on 0.1% gelatin-coated 35-mm plastic Petri dishes. […] Data was reported as IC50 values±STD (Table 1).

[6] = target: Nav1.5 sodium channel, peak current (INaP) (Homo sapiens, UniProt Q14524, form not given); assay: in vitro
Protocol: as §1

[7] = ratio peak/late IC50, Example 2
[8] = read-out: LQT-EC50 (μM) Shortening, pyridyl derivatives
[9] = read-out: LQT-EC50 (μM) Shortening, LQT-3 cardiomyocytes, AP shortening
[10] = WT cardiomyocytes, AP prolongation
[11] = LQT-3 cardiomyocytes, cessation of beating

hERG potassium channel (IKr), sequence (Q12809 whole entry): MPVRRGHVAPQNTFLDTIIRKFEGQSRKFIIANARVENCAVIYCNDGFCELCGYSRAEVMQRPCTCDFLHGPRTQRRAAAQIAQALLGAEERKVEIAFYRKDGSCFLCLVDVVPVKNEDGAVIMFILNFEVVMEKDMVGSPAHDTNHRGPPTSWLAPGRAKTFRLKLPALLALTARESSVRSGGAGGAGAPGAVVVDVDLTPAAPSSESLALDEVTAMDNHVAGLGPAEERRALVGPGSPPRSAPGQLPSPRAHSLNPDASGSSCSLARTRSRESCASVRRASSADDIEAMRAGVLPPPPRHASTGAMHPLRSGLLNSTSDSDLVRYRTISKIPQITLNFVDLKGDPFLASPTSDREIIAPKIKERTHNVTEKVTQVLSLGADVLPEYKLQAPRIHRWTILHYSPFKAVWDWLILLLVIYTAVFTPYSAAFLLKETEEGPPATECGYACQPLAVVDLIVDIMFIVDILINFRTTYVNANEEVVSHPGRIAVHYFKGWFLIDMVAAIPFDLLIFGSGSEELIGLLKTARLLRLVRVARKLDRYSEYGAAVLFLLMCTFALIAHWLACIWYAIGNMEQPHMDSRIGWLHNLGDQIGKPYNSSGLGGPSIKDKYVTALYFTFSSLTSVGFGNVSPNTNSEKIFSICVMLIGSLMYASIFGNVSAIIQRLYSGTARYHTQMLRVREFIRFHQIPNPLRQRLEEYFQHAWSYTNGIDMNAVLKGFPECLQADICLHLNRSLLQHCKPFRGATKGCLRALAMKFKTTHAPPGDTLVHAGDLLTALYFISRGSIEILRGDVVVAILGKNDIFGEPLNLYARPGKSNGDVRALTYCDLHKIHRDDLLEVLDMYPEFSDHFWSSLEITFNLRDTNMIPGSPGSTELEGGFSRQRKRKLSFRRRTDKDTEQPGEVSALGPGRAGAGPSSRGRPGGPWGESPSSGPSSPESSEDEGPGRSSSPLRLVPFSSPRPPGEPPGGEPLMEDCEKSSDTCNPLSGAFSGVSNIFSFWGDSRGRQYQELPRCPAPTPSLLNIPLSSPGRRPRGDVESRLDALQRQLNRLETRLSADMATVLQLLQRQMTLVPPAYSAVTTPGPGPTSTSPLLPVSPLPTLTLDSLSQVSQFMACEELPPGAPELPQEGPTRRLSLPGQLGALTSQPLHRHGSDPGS

Structure (SMILES): CC(N)COC1CCCCC1.Cl (stereo not drawn) [Compound 87]
LQT-Cessation Dose ([1]; LQT3 cardiomyocytes): None
LQT-Fold Shortening ([1]; LQT3 cardiomyocytes): 1.611
IC50 ([2]; read-out: LQT-IC50 (uM)-Shortening): 34.8 µM
WT-Fold Prolongation [3]: None
Cessation of Beating [3]: None
WT-Prolongation Dose [3]: None

Structure (SMILES): Cc1cc(C)cc(OCC(N)C2CCCCC2)c1.Cl (stereo not drawn) [Compound 89]
IC50 [4]: 4.9 µM
IC50 ([4]; Example 2): 4.9 µM
DKr/NaL ([4]; ratio hERG IC50/late Na IC50): 3.1
DNaP/Kr ([4]; ratio peak Na IC50/hERG IC50): 5.0
DKr/NaL ([4]; ratio, Example 2): 3.1
DNaP/Kr ([4]; ratio, Example 2): 5.0
DNap/NaL ([5]; ratio peak IC50/late IC50): 15.2
DNap/NaL [5, 7]: 15.3
IC50 ([6]; Peak Na+ (INaP) IC50): 24.3 µM

Structure (SMILES): COCCNC(COc1ccccc1C)c1ccccc1.Cl (stereo not drawn) [Compound 90]
LQT-Cessation Dose ([1]; LQT3 cardiomyocytes): 133 µM
LQT-Fold Shortening ([1]; LQT3 cardiomyocytes): 1.1
WT-Fold Prolongation [3]: None
Cessation of Beating [3]: 133 µM
WT-Prolongation Dose [3]: None
IC50 ([4]; Example 2): 25.3 µM
DKr/NaL ([4]; ratio, Example 2): 1.32
DNaP/Kr ([4]; ratio, Example 2): 1.32
DNap/NaL ([5]; ratio peak IC50/late IC50): 11.8
DNap/NaL [5, 7]: 11.8
IC50 ([5]; read-out: Late Na+ (INaL) IC50, patch clamp, transfected cells): 2.83 µM
IC50 ([5]; read-out: Late Na+ (INaL) IC50, transfected cells, Example 2): 2.83 µM
IC50 ([5]; read-out: Peak Na+ (INaP) IC50, transfected cells, Example 2): 33.4 µM
IC50 [6]: 33.4 µM

Structure (SMILES): Cc1cc(C)cc(OCC(N)C2CC2)c1.Cl (stereo not drawn) [Compound 91]
IC50 [4]: 45.8 µM
IC50 ([4]; Example 2): 45.8 µM
DKr/NaL ([4]; ratio hERG IC50/late Na IC50): 4.6
DNaP/Kr ([4]; ratio peak Na IC50/hERG IC50): 1.7
DKr/NaL ([4]; ratio, Example 2): 4.6
DNaP/Kr ([4]; ratio, Example 2): 1.7
IC50 [5]: 10 µM
DNap/NaL ([5]; ratio peak IC50/late IC50): 7.7
DNap/NaL [5, 7]: 7.68
IC50 ([6]; Peak Na+ (INaP) IC50): 76.8 µM

LQT-Cessation Dose ([1]; LQT3 cardiomyocytes): None
Cessation of Beating [3]: None
WT-Cessation Dose ([3]; pyridyl derivatives): No cessation of beating
Structure (SMILES): NC(COc1ncccc1C(F)(F)F)c1ccccc1 (stereo not drawn) [Compound 96, 1-phenyl-2-((3-(trifluoromethyl)pyridin-2-yl)oxy)ethan-1-amine]
LQT-Fold Shortening ([1]; LQT3 cardiomyocytes): 1.3
LQT-Fold Shortening ([1]; pyridyl derivatives): 1.358
LQT-Shortening Dose ([1]; pyridyl derivatives): 133 µM
EC50 [2, 8]: 20.7 µM
WT-Fold Prolongation [3]: 1.163
WT-EC50 (μM) Prolongation ([3]; pyridyl derivatives): Does Not Prolong AP

LQT-Cessation Dose ([1]; LQT3 cardiomyocytes): 22 µM
Cessation of Beating [3]: None
Structure (SMILES): Cc1cccnc1OCC(C)N (stereo not drawn) [Compound 100, 1-(-3-Methyl-pyridin-2-yloxy)propan-2-amine]
LQT-Fold Shortening ([1]; LQT3 cardiomyocytes): 1.13
WT-Fold Prolongation [3]: None
WT-Prolongation Dose [3]: None
IC50 ([6]; Peak Na+ (INaP) IC50): 252 µM

Structure (SMILES): Cc1ncccc1OCC(N)c1ccccc1 (stereo not drawn) [Compound 111]
LQT-Fold Shortening ([1]; LQT-3 cardiomyocytes): 1.426
LQT-Shortening Dose (μM) ([1]; LQT-3 cardiomyocytes): Does Not Shorten
EC50 [2, 9]: 8.57 µM
EC50 [2, 8]: ~8 µM
WT-EC50 (μM) Prolongation [3, 10]: Does Not Prolong AP

Structure (SMILES): Cc1ccc(OCC(N)c2ccccc2)cn1 (stereo not drawn) [Compound 114]
LQT-Fold Shortening ([1]; LQT-3 cardiomyocytes): 1.233
EC50 [2, 9]: 67.5 µM
WT-EC50 (μM) Prolongation [3, 10]: Does Not Prolong AP
WT-Cessation Dose (μM) ([3]; WT cardiomyocytes): No cessation of beating

Structure (SMILES): COCCNC(COc1c(C)ccnc1C)c1ccccc1 (stereo not drawn) [Compound 122]
LQT-Fold Shortening ([1]; LQT-3 cardiomyocytes): 1.188
EC50 [2, 9]: 46.6 µM
WT-EC50 (μM) Prolongation [3, 10]: Does Not Prolong AP

Structure (SMILES): NC(COc1ccncc1)c1ccccc1 (stereo not drawn) [Compound 126]
LQT-Fold Shortening ([1]; LQT-3 cardiomyocytes): 1.281
EC50 [2, 9]: 3.82 µM
EC50 [2, 8]: ~4 µM
WT-EC50 (μM) Prolongation [3, 10]: Does Not Prolong AP
WT-Cessation Dose (μM) ([3]; WT cardiomyocytes): No cessation of beating

Structure (SMILES): NC(COc1cccc2ccccc12)c1ccccc1 (stereo not drawn) [Compound 129]
LQT-Fold Shortening ([1]; LQT-3 cardiomyocytes): 1.316
LQT-Cessation Dose [1, 11]: 66 µM
EC50 [2, 9]: 0.82 µM
WT-EC50 (μM) Prolongation [3, 10]: Does Not Prolong AP

Structure (SMILES): NC(COc1ccc2ccccc2c1)c1ccccc1 (stereo not drawn) [Compound 130]
LQT-Fold Shortening ([1]; LQT-3 cardiomyocytes): 1.459
LQT-Cessation Dose [1, 11]: 133 µM
EC50 [2, 9]: 8.7 µM
WT-EC50 (μM) Prolongation [3, 10]: Does Not Prolong AP

Structure (SMILES): Cc1cccc(C)c1OCC(N)c1ccc2ccccc2c1 (stereo not drawn) [Compound 131]
LQT-Fold Shortening ([1]; LQT-3 cardiomyocytes): 1.309
LQT-Cessation Dose [1, 11]: 133 µM
EC50 [2, 9]: 4.73 µM
WT-EC50 (μM) Prolongation [3, 10]: Does Not Prolong AP

Structure (SMILES): Cc1ccccc1OCC(N)c1ccc2ccccc2c1 (stereo not drawn) [Compound 133]
LQT-Fold Shortening ([1]; LQT-3 cardiomyocytes): 1.302
LQT-Cessation Dose [1, 11]: 133 µM
EC50 [2, 9]: 8.83 µM
WT-EC50 (μM) Prolongation [3, 10]: Does Not Prolong AP
